Laboratory results from paper PMC9742383, “From tryptamine to the discovery of efficient multi-target directed ligands against cholinesterase-associated neurodegenerative disorders” (Frontiers in Pharmacology, 2022).
Where two headings read alike, the source gives them in different places.

Tests used:
AChE = target: T1, AChE (Electrophorus electricus, UniProt O42275); assay: Ellman colorimetric assay; format: biochemical
T1 construct: native enzyme, Type V-S lyophilized powder, Sigma-Aldrich

in vitro [1] = assay: in vitro; set-up: species or system LO2, HepG2; MTT cytotoxicity, absorbance at 570 nm; conditions: human, sh-sy5y; read-out: ^a IC50 ± SD (μM) / SH-SY5Y
Description: (§1) The cell lines present in this study were purchased from the China Center for Type Collection (CCTCC, China). For cytotoxicity assay, HT-22, BV2, SH-SY5Y, HepG2, and LO2 cells were incubated in 96-well plates at the density of 5 × 10³ per well. After incubation for 12 h at 37°C, the tested compounds with the required concentrations were added to the corresponding wells and continuously incubated for 24 h at 37°C. Then, the prepared MTT (3-[4,5-dimethyl-2-thiazolyl]-2,5-diphenyl-2H-tetrazolium bromide) solution was added to each well and co-incubated for another 4 h at 37°C. Then, the supernatant was removed, and 100 μl DMSO was added to each well. The OD value of each well was detected at 570 nm using a microplate reader (Bio-Rad Laboratories, CA, United States). The IC50 values were calculated using IBM SPSS Statistics 25.0 software. All experiments were performed in triplicate, and the results were shown as the mean ± SD. In order to further evaluate the applicability of the compounds with dibenzyl groups for neurological diseases, we also tested the cytotoxicity of the selected compounds (2f, 2h, 2j, 2m, 2o-2r, 2t, and 2u) bearing little toxicity on HT-22 cells, microglia cell line BV2, and human neuroblastoma cell line SH-SY5Y, which are widely used in the study of neurological diseases. […] In view of some carbamate-based ChE inhibitors reported to be hepatotoxic, we further performed the preliminary evaluation of the hepatotoxicity of the selected compounds on human normal liver cell line LO2 and human hepatocellular carcinoma cell line HepG2.

in vitro [2] = assay: in vitro; set-up: species or system SH-SY5Y, HepG2; MTT cytotoxicity, absorbance at 570 nm; conditions: human, lo2 cells; read-out: ^a IC50 ± SD (μM) / LO2
Description: as §1

in vitro [3] = assay: in vitro; set-up: species or system SH-SY5Y, LO2; MTT cytotoxicity, absorbance at 570 nm; conditions: human, read-out: ^a IC50 ± SD (μM) / HepG2
Description: as §1

in vitro [4] = assay: in vitro; set-up: MTT cytotoxicity, absorbance at 570 nm, HT-22 mouse hippocampal neuronal cells; conditions: mouse, read-out: IC50 ± SD / HT-22 ^a
Description: The cell lines present in this study were purchased from the China Center for Type Collection (CCTCC, China). For cytotoxicity assay, HT-22, BV2, SH-SY5Y, HepG2, and LO2 cells were incubated in 96-well plates at the density of 5 × 10³ per well. After incubation for 12 h at 37°C, the tested compounds with the required concentrations were added to the corresponding wells and continuously incubated for 24 h at 37°C. Then, the prepared MTT (3-[4,5-dimethyl-2-thiazolyl]-2,5-diphenyl-2H-tetrazolium bromide) solution was added to each well and co-incubated for another 4 h at 37°C. Then, the supernatant was removed, and 100 μl DMSO was added to each well. The OD value of each well was detected at 570 nm using a microplate reader (Bio-Rad Laboratories, CA, United States). The IC50 values were calculated using IBM SPSS Statistics 25.0 software. All experiments were performed in triplicate, and the results were shown as the mean ± SD. In order to explore the applicability of the synthesized CTDs in neurological diseases, the neuronal cytotoxicity of the synthesized compounds was evaluated on mouse hippocampal neuronal cell line HT-22. […] In view of these CTDs endowed strong inhibition efficacy on BuChE, we preliminarily evaluated their safety range by comparing their IC50 values on cytotoxicity and BuChE inhibitory activity. […] Therefore, the series of compounds with dibenzyl groups, especially compounds bearing ring carbon alkyl chains (2f-2h) and tertiary amine residues (2j-2u) with little cytotoxicity on HT-22, can be considered as potential lead building blocks for further structure optimization to develop novel effective agents against neurological diseases.

BuChE [5] = target: T2, BuChE (Equus caballus, UniProt P81908); assay: Ellman colorimetric assay; format: biochemical; set-up: gene BCHE; native enzyme from equine serum, purchased from Sigma-Aldrich
T2 sequence (P81908 whole entry): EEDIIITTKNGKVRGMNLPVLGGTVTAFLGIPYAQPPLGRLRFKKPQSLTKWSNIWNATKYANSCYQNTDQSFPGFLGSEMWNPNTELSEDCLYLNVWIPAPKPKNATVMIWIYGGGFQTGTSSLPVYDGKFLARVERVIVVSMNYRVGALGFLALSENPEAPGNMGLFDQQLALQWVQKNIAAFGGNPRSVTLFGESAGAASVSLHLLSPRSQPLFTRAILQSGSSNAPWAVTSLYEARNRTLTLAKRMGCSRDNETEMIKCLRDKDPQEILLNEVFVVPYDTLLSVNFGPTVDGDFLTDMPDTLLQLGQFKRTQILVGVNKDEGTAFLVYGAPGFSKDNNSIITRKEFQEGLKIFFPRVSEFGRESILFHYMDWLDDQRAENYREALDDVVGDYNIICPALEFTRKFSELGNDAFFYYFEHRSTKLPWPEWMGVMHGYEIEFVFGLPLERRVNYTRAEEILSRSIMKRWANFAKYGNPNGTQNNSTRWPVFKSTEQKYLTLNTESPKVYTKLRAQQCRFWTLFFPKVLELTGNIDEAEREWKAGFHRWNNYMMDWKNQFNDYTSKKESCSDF

BuChE [6] = target: T2, BuChE; assay: time-dependent Ellman assay, kobs analysis; set-up: gene BCHE; conditions: read-out: kc; equilibrium constant of reversible step before carbamylation; covalent
[7] = read-out: IC50 ± SD ^a / AChE ^a
[8] = ht-22 hippocampal neuronal cells
[9] = read-out: IC50 ± SD ^a / BuChE ^a

T1 sequence (O42275 24-633): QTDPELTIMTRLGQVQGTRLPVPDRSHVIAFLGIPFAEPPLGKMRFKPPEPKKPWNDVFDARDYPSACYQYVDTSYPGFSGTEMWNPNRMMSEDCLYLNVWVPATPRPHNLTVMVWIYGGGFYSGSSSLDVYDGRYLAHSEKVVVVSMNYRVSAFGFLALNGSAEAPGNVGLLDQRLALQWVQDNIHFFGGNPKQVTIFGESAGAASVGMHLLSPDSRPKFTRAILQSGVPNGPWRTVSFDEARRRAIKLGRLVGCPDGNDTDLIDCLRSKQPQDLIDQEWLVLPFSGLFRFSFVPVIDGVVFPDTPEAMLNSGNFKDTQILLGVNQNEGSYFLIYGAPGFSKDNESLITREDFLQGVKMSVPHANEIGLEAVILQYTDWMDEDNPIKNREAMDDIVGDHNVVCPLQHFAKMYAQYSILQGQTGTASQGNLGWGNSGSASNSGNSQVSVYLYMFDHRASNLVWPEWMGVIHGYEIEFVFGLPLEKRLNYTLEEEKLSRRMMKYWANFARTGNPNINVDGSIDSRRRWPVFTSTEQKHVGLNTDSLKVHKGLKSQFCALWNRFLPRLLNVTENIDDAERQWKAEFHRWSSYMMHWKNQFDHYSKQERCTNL

| SMILES | IC50 (AChE; read-out: IC50 ± SD / AChE ^a) [µM] | CC50 at 24 h (in vitro [1]) [µM] | CC50 at 24 h (in vitro [2]) [µM] | CC50 at 24 h (in vitro [3]; hepg2 cells) [µM] | CC50 at 24 h (in vitro [4]; ht-22) [µM] | IC50 (BuChE [5]; read-out: IC50 ± SD / BuChE ^a) [µM] | CC50 at 24 h (in vitro [3]; hepg2) [µM] | IC50 (AChE; [7]) [µM] | CC50 at 24 h (in vitro [4]; [8]) [µM] | KI (inactivation) (BuChE [6]) [µM] | IC50 (BuChE [5]; [9]) [µM] | IC50 (AChE; ATCI substrate, […] min preincubation […] °C, pH […], read-out: IC50 ± SD ^a / AChE ^a) [µM] | IC50 (BuChE [5]; BTCI substrate, […] min preincubation […] °C, pH […], pseudo-irreversible carbamate, covalent, read-out: IC50 ± SD ^a / BuChE ^a) [µM] |
| --- | --- | --- | --- | --- | --- | --- | --- | --- | --- | --- | --- | --- | --- |
| CN(C(=O)Oc1ccc2[nH]cc(CCN(Cc3ccccc3)Cc3ccccc3)c2c1)c1ccccc1 [2p, 3-(2-(dibenzylamino)ethyl)-1H-indol-5-yl methyl(phenyl)carbamate] | > 100 | > 100 | > 100 | > 100 | > 100 | 0.0189 ± 0.00134 | – | – | – | – | – | – | – |
| O=C(Oc1ccc2[nH]cc(CCN(Cc3ccccc3)Cc3ccccc3)c2c1)N1CCCC1 [2r, 3-(2-(dibenzylamino)ethyl)-1H-indol-5-yl pyrrolidine-1-carboxylate] | > 100 | > 100 | > 100 | – | 79.8 ± 5.36 | 0.0205 ± 0.0017 | > 100 | – | – | – | – | – | – |
| O=C(Oc1ccc2[nH]cc(CCNCc3ccccc3)c2c1)N1CCCCC1 [3s, 3-(2-(benzylamino)ethyl)-1H-indol-5-yl piperidine-1-carboxylate] | – | – | – | – | – | – | – | 9.08 | 13.8 ± 0.91 | 0.00508 | 0.0339 ± 0.00214 | – | – |
| O=C(NC1CCCCC1)Oc1ccc2[nH]cc(CCN(Cc3ccccc3)Cc3ccccc3)c2c1 [2h, 3-(2-(dibenzylamino)ethyl)-1H-indol-5-yl cyclohexylcarbamate] | > 100 | > 100 | > 100 | – | 74.2 ± 1.5 | 0.016 ± 0.00032 | – | – | – | – | – | – | – |
| O=C(NC1CC1)Oc1ccc2[nH]cc(CCN(Cc3ccccc3)Cc3ccccc3)c2c1 [2f, 3-(2-(dibenzylamino)ethyl)-1H-indol-5-yl cyclopropylcarbamate] | > 100 | – | – | – | 60.2 ± 3.85 | 0.00875 ± 0.00023 | – | – | – | 0.00159 | – | – | – |
| CCN(C)C(=O)Oc1cccc([C@H](C)N(C)C)c1 [rivastigmine] | – | > 100 | > 100 | – | – | – | > 100 | – | – | 0.0559 | – | – | – |
| CCCCCNC(=O)Oc1ccc2[nH]cc(CCNCc3ccccc3)c2c1 [3c, 3-(2-(benzylamino)ethyl)-1H-indol-5-yl pentylcarbamate] | – | – | – | – | – | – | – | 1.13 | 10.6 ± 0.24 | 0.0737 | 0.0239 ± 0.0029 | – | – |
| CN(C)C(=O)Oc1ccc2[nH]cc(CCN(Cc3ccccc3)Cc3ccccc3)c2c1 [2j, 3-(2-(dibenzylamino)ethyl)-1H-indol-5-yl dimethylcarbamate] | > 100 | > 100 | > 100 | – | > 100 | 0.00677 ± 0.00027 | > 100 | – | – | – | – | – | – |
| O=C(NC1CC1)Oc1ccc2[nH]cc(CCNCc3ccccc3)c2c1 [3f, 3-(2-(benzylamino)ethyl)-1H-indol-5-yl cyclopropylcarbamate] | – | – | – | – | – | – | – | 3.17 | 15 ± 1.17 | 0.00576 | 0.0157 ± 0.0013 | – | – |
| CCCCN(CCCC)C(=O)Oc1ccc2[nH]cc(CCN(Cc3ccccc3)Cc3ccccc3)c2c1 [2m, 3-(2-(dibenzylamino)ethyl)-1H-indol-5-yl dibutylcarbamate] | > 100 | > 100 | > 100 | – | 65.28 ± 0.09 | 0.0138 ± 0.00067 | > 100 | – | – | – | – | – | – |
| O=C(Oc1ccc2[nH]cc(CCN(Cc3ccccc3)Cc3ccccc3)c2c1)N1CCC1 [2q, 3-(2-(dibenzylamino)ethyl)-1H-indol-5-yl azetidine-1-carboxylate] | 0.742 ± 0.00987 | – | – | > 100 | 86.5 ± 1.82 | 0.00165 ± 3e-05 | – | – | – | – | – | – | – |
| CCCCCNC(=O)Oc1ccc2[nH]cc(CCN(Cc3ccccc3)Cc3ccccc3)c2c1 [2c, 3-(2-(dibenzylamino)ethyl)-1H-indol-5-yl pentylcarbamate] | > 100 | – | – | – | 37.47 ± 0.23 | 0.0021 ± 0.00014 | – | – | – | 0.00705 | – | – | – |
| O=C(Oc1ccc2[nH]cc(CCN(Cc3ccccc3)Cc3ccccc3)c2c1)N1CCCCCC1 [2t, 3-(2-(dibenzylamino)ethyl)-1H-indol-5-yl azepane-1-carboxylate] | > 100 | – | > 100 | – | > 100 | 0.068 ± 0.00842 | > 100 | – | – | – | – | – | – |
| CCCCCCCNC(=O)Oc1ccc2[nH]cc(CCN(Cc3ccccc3)Cc3ccccc3)c2c1 [2e, 3-(2-(dibenzylamino)ethyl)-1H-indol-5-yl heptylcarbamate] | > 100 | – | – | – | 35.6 ± 2.45 | 0.00142 ± 4e-06 | – | – | – | 0.00255 | – | – | – |
| CCCCCCCNC(=O)Oc1ccc2[nH]cc(CCN)c2c1 [4e, 3-(2-aminoethyl)-1H-indol-5-yl heptylcarbamate] | – | – | – | – | – | – | – | – | 26.1 ± 2.29 | 0.00302 | – | > 100 | 0.0101 ± 0.00083 |
| O=C(Oc1ccc2[nH]cc(CCN(Cc3ccccc3)Cc3ccccc3)c2c1)N1CCOCC1 [2u, 3-(2-(dibenzylamino)ethyl)-1H-indol-5-yl morpholine-4-carboxylate] | > 100 | > 100 | > 100 | – | 78.7 ± 3.79 | 0.114 ± 0.00145 | > 100 | – | – | – | – | – | – |
